# Experimental data as given in patent US10370360B2, “Small-molecule inhibitors targeting discoidin domain receptor 1 and uses thereof” (priority 2014, dated 2019).
# What was measured:
# Format in all cases: biochemical
# c-Kit = c-Kit (Homo sapiens (Human), UniProt P10721); experiment: FRET-based Z'-Lyte kinase assay, c-kit; details: 300 μM ATP
# DDR2 = DDR2 (Homo sapiens (Human), UniProt Q16832); experiment: LanthaScreen Eu kinase activity assay, DDR2; details: 100 nM ATP
# DDR1 = DDR1 (Homo sapiens (Human), UniProt Q08345); experiment: LanthaScreen Eu kinase activity assay, DDR1; details: 100 nM ATP
# Bcr-Abl = experiment: FRET-based Z'-Lyte kinase assay, Abl; details: 10 μM ATP; cells printed in μM
# Chain of Bcr-Abl (P00519 whole entry): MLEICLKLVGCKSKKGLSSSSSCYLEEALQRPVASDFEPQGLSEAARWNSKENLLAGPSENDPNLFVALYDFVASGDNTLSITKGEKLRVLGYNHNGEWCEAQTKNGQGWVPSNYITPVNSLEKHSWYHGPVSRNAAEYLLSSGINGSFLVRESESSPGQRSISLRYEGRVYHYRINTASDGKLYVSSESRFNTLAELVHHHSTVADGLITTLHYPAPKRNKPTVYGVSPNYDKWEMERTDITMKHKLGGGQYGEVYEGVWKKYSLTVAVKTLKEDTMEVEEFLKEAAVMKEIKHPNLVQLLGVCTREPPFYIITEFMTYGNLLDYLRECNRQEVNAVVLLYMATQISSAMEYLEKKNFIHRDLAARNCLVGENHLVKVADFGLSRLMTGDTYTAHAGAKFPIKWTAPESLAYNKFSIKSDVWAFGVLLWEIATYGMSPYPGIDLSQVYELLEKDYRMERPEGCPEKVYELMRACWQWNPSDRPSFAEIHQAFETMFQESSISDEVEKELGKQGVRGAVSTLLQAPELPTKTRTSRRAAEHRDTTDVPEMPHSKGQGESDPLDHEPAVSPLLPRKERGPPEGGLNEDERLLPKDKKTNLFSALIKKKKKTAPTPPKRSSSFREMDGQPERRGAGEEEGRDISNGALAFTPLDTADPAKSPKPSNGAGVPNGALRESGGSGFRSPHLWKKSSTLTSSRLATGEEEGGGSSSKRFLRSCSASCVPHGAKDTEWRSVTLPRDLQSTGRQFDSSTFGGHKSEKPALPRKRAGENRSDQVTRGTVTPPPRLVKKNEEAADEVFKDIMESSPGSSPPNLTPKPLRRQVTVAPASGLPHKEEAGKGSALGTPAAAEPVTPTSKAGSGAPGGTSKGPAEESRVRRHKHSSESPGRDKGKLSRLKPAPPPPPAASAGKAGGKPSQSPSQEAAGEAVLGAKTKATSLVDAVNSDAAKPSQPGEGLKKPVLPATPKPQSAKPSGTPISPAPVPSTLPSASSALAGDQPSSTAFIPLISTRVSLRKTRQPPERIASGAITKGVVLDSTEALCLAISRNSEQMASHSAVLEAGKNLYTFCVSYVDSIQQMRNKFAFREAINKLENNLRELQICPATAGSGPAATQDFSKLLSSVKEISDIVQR
# Chain of DDR2 (Q16832 22-855): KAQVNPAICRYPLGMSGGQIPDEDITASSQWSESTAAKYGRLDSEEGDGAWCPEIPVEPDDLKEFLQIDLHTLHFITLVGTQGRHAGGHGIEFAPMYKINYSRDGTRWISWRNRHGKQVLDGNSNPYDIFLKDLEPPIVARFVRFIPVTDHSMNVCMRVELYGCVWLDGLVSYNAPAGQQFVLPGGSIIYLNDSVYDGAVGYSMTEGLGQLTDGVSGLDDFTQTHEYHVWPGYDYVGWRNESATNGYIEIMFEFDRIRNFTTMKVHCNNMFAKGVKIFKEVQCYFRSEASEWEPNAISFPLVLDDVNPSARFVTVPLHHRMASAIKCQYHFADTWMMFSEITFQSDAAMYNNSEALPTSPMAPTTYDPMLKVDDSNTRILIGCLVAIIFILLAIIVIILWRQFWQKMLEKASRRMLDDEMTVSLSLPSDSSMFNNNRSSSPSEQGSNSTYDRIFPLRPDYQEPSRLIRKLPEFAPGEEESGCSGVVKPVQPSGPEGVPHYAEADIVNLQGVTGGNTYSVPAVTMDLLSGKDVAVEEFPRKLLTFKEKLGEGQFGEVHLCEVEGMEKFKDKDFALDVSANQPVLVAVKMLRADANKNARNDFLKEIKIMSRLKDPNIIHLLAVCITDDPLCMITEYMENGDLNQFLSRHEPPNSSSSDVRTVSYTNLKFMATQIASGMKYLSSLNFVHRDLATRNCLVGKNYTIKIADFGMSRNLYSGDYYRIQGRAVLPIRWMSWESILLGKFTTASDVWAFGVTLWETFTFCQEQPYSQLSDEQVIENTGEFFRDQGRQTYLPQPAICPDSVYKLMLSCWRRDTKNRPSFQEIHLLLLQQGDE
# Chain of DDR1 (Q08345 19-913): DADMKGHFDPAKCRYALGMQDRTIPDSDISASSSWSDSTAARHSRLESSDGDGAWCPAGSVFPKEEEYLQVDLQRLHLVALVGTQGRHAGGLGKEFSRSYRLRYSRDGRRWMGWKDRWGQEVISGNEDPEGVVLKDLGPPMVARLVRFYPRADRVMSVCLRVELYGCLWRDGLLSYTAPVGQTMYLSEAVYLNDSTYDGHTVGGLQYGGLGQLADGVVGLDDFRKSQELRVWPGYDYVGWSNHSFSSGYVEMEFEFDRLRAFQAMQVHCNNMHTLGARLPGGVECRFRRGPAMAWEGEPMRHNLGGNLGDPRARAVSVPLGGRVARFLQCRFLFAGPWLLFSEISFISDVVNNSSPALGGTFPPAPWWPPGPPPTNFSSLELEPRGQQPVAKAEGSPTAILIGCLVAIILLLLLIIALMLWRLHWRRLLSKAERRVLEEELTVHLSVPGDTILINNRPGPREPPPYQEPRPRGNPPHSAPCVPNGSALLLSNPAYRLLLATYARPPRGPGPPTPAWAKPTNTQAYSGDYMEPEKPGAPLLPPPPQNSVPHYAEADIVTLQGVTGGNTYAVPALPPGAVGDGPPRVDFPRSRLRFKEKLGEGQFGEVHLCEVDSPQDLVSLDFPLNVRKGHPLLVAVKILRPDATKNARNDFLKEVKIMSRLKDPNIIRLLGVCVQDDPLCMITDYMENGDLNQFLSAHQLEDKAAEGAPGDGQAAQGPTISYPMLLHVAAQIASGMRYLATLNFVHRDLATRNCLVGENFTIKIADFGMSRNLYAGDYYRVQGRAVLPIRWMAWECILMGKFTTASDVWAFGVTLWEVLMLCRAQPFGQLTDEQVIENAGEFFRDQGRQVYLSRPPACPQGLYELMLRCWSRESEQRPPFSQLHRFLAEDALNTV
# Chain of c-Kit (P10721 26-976): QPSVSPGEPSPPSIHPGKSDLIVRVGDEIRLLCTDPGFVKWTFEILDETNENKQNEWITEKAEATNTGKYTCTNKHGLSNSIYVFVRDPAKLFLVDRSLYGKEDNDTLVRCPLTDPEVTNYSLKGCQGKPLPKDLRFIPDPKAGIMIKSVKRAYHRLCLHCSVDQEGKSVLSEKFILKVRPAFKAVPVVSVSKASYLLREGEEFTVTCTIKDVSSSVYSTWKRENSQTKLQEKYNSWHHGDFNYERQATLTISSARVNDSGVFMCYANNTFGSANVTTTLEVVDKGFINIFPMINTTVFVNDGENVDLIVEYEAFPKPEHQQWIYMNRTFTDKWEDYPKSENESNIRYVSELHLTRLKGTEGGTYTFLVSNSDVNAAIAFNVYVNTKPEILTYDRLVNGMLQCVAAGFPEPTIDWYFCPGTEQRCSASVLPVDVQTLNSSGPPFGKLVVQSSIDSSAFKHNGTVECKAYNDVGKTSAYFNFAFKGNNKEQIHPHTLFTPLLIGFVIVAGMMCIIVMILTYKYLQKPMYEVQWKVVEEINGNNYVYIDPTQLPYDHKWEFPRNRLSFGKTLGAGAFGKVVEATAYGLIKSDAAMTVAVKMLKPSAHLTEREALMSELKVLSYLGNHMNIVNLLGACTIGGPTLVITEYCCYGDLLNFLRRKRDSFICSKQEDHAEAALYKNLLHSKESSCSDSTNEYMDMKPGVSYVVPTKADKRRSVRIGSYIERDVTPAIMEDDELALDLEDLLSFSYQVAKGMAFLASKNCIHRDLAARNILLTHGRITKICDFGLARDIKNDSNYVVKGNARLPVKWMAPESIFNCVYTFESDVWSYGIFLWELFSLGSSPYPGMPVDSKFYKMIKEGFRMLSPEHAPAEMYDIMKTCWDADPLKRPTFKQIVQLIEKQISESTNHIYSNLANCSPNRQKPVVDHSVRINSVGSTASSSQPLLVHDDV
IC50 (c-Kit),IC50 (DDR2; cells printed in μM),IC50 (DDR1),IC50 (Bcr-Abl),IC50 (DDR2; cells without unit),SMILES
> 10000 nM,–,–,–,0.672 µM,"CC1CN(c2cncnc2)Cc2cc(C(=O)Nc3cc(CN4CC[C@@H](N(C)C)C4)cc(C(F)(F)F)c3)ccc21 (stereo partly drawn) [Example 24, N-(3-(((R)-3-(dimethylamino)pyrrolidin-1-yl)methyl)-5-(trifluoromethyl)phenyl)-4-methyl-2-(pyrimidin-5-yl)-1,2,3,4-tetrahydroisoquinoline-7-carboxamide]"
> 10000 nM,–,–,–,0.862 µM,"CC1CN(c2cncnc2)Cc2cc(C(=O)Nc3cc(CN4CC[C@H](N(C)C)C4)cc(C(F)(F)F)c3)ccc21 (stereo partly drawn) [Example 25, N-(3-(((S)-3-(dimethylamino)pyrrolidin-1-yl)methyl)-5-(trifluoromethyl)phenyl)-4-methyl-2-(pyrimidin-5-yl)-1,2,3,4-tetrahydroisoquinoline-7-carboxamide]"
> 10000 nM,1.4 µM,–,–,–,"CC1CN(c2cncnc2)Cc2cc(C(=O)Nc3cc(CN4CCN(C)CC4)c(F)c(C(F)(F)F)c3)ccc21 (stereo not shown) [Example 27, N-(4-fluoro-3-((4-methylpiperazin-1-yl)methyl)-5-(trifluoromethyl)phenyl)-4-methyl-2-(pyrimidin-5-yl)-1,2,3,4-tetrahydroisoquinoline-7-carboxamide]"
> 10000 nM,–,66.6 nM,–,0.94 µM,"CC1CN(c2cncnc2)Cc2cc(C(=O)Nc3cc(CN4CCN(C)CC4)cc(C(C)(C)C)c3)ccc21 (stereo not shown) [Example 28, N-(3-tert-butyl-5-((4-methylpiperazin-1-yl)methyl)phenyl)-4-methyl-2-(pyrimidin-5-yl)-1,2,3,4-tetrahydroisoquinoline-7-carboxamide]"
> 10000 nM,1.4 µM,44.6 nM,–,–,"CC1CN(c2cncnc2)Cc2cc(C(=O)Nc3cc(CN4CCN(C)CC4)cc(-c4ccccc4)c3)ccc21 (stereo not shown) [Example 29, 4-methyl-N-(5-((4-methylpiperazin-1-yl)methyl)biphenyl-3-yl)-2-(pyrimidin-5-yl)-1,2,3,4-tetrahydroisoquinoline-7-carboxamide]"
> 10000 nM,1.1 µM,89 nM,–,–,"CC1CN(c2cncnc2)Cc2cc(C(=O)Nc3cc(CN4CCN(C)CC4)cc(C4CC4)c3)ccc21 (stereo not shown) [Example 31, N-(3-cyclopropyl-5-((4-methylpiperazin-1-yl)methyl)phenyl)-4-methyl-2-(pyrimidin-5-yl)-1,2,3,4-tetrahydroisoquinoline-7-carboxamide]"
> 10000 nM,–,–,–,0.306 µM,"CC1CN(c2cncnc2)Cc2cc(C(=O)Nc3cc(CN4CCN(C)CC4)cc(C4CCCC4)c3)ccc21 (stereo not shown) [Example 32, N-(3-cyclopentyl-5-((4-methylpiperazin-1-yl)methyl)phenyl)-4-methyl-2-(pyrimidin-5-yl)-1,2,3,4-tetrahydroisoquinoline-7-carboxamide]"
> 10000 nM,2 µM,–,–,–,"CCC1CN(c2cncnc2)Cc2cc(C(=O)Nc3cc(CN4CCN(C)CC4)cc(C(F)(F)F)c3)ccc21 (stereo not shown) [Example 34, 4-ethyl-N-(3-((4-methylpiperazin-1-yl)methyl)-5-(trifluoromethyl)phenyl)-2-(pyrimidin-5-yl)-1,2,3,4-tetrahydroisoquinoline-7-carboxamide]"
> 10000 nM,7.8 µM,–,–,–,"CN1CCN(Cc2cc(C(=O)Nc3ccc4c(c3)CN(c3cncnc3)CC4)cc(C(F)(F)F)c2)CC1 [Example 36, 3-((4-methylpiperazin-1-yl)methyl)-N-(2-(pyrimidin-5-yl)-1,2,3,4-tetrahydroisoquinolin-7-yl)-5-(trifluoromethyl)benzamide]"
> 10000 nM,–,–,–,–,"C[C@@H]1CN(c2cncnc2)Cc2cc(C(=O)Nc3cc(CN4CCN(C)CC4)cc(C(F)(F)F)c3)ccc21 [Example 37, (S)-4-methyl-N-(3-((4-methylpiperazin-1-yl)methyl)-5-(trifluoromethyl)phenyl)-2-(pyrimidin-5-yl)-1,2,3,4-tetrahydroisoquinoline-7-carboxamide]"
> 10000 nM,–,–,–,–,"C[C@H]1CN(c2cncnc2)Cc2cc(C(=O)Nc3cc(CN4CCN(C)CC4)cc(C(F)(F)F)c3)ccc21 [Example 38, (R)-4-methyl-N-(3-((4-methylpiperazin-1-yl)methyl)-5-(trifluoromethyl)phenyl)-2-(pyrimidin-5-yl)-1,2,3,4-tetrahydroisoquinoline-7-carboxamide]"

# Further lines, the compound ahead of its results:
SMILES,IC50 (c-Kit),IC50 (DDR2; cells printed in μM),IC50 (DDR1),IC50 (Bcr-Abl),IC50 (DDR2; cells without unit)
"CC1CN(c2cncnc2)Cc2cc(C(=O)Nc3cc(CN4CCN(C)CC4)cc(C(F)(F)F)c3)ccc21 (stereo not shown) [Example 1, 4-methyl-N-(3-((4-methylpiperazin-1-yl)methyl)-5-(trifluoromethyl)phenyl)-2-(pyrimidin-5-yl)-1,2,3,4-tetrahydroisoquinoline-7-carboxamide]",> 10000 nM,–,–,–,–
"CN1CCN(Cc2cc(NC(=O)c3ccc4c(c3)CN(c3cncnc3)CC4)cc(C(F)(F)F)c2)CC1 [Example 3, N-(3-((4-methylpiperazin-1-yl)methyl)-5-(trifluoromethyl)phenyl)-2-(pyrimidin-5-yl)-1,2,3,4-tetrahydroisoquinoline-7-carboxamide]",> 10000 nM,8 µM,–,–,–
"CN1CCN(Cc2cc(NC(=O)c3ccc4c(c3)CN(c3cccnc3)CC4)cc(C(F)(F)F)c2)CC1 [Example 4, N-(3-((4-methylpiperazin-1-yl)methyl)-5-(trifluoromethyl)phenyl)-2-(pyridin-3-yl)-1,2,3,4-tetrahydroisoquinoline-7-carboxamide]",> 10000 nM,4.3 µM,–,–,–
"CN1CCN(Cc2cc(NC(=O)c3ccc4c(c3)CN(c3cnc5ccccc5c3)CC4)cc(C(F)(F)F)c2)CC1 [Example 5, N-(3-((4-methylpiperazin-1-yl)methyl)-5-(trifluoromethyl)phenyl)-2-(quinolin-3-yl)-1,2,3,4-tetrahydroisoquinoline-7-carboxamide]",8700 nM,–,–,–,–
"CC1CN(c2cccnc2)Cc2cc(C(=O)Nc3cc(CN4CCN(C)CC4)cc(C(F)(F)F)c3)ccc21 (stereo not shown) [Example 6, 4-methyl-N-(3-((4-methylpiperazin-1-yl)methyl)-5-(trifluoromethyl)phenyl)-2-(pyridin-3-yl)-1,2,3,4-tetrahydroisoquinoline-7-carboxamide]",> 10000 nM,1.2 µM,–,–,–
"CN1CCN(Cc2cc(NC(=O)c3ccc4c(c3)CN(c3cncnc3)CC4(C)C)cc(C(F)(F)F)c2)CC1 [Example 7, 4,4-dimethyl-N-(3-((4-methylpiperazin-1-yl)methyl)-5-(trifluoromethyl)phenyl)-2-(pyrimidin-5-yl)-1,2,3,4-tetrahydroisoquinoline-7-carboxamide]",> 10000 nM,4.5 µM,223 nM,> 10 µM,–
"CC1CN(c2cncnc2)Cc2cc(C(=O)Nc3cc(CN4CCN(C)CC4)c(Cl)c(C(F)(F)F)c3)ccc21 (stereo not shown) [Example 8, N-(4-chloro-3-((4-methylpiperazin-1-yl)methyl)-5-(trifluoromethyl)phenyl)-4-methyl-2-(pyrimidin-5-yl)-1,2,3,4-tetrahydroisoquinoline-7-carboxamide]",> 10000 nM,–,–,–,0.915 µM
"Cc1c(CN2CCN(C)CC2)cc(NC(=O)c2ccc3c(c2)CN(c2cncnc2)CC3C)cc1C(F)(F)F (stereo not shown) [Example 9, 4-methyl-N-(4-methyl-3-((4-methylpiperazin-1-yl)methyl)-5-(trifluoromethyl)phenyl)-2-(pyrimidin-5-yl)-1,2,3,4-tetrahydroisoquinoline-7-carboxamide]",> 10000 nM,1.1 µM,–,–,–
"CC1CN(c2cncnc2)Cc2cc(C(=O)Nc3cc(CCN4CCN(C)CC4)cc(C(F)(F)F)c3)ccc21 (stereo not shown) [Example 10, 4-methyl-N-(3-(2-(4-methylpiperazin-1-yl)ethyl)-5-(trifluoromethyl)phenyl)-2-(pyrimidin-5-yl)-1,2,3,4-tetrahydroisoquinoline-7-carboxamide]",> 10000 nM,–,36.7 nM,> 10 µM,0.449 µM
CC1CN(c2cncnc2)Cc2cc(C(=O)Nc3cc(N4CCN(C)CC4)cc(C(F)(F)F)c3)ccc21 (stereo not shown) [Example 11],> 10000 nM,2.2 µM,132 nM,> 10 µM,–
"CC1CN(c2cncnc2)Cc2cc(C(=O)Nc3ccc(CN4CCN(C)CC4)c(C(F)(F)F)c3)ccc21 (stereo not shown) [Example 12, 4-methyl-N-(4-((4-methylpiperazin-1-yl)methyl)-3-(trifluoromethyl)phenyl)-2-(pyrimidin-5-yl)-1,2,3,4-tetrahydroisoquinoline-7-carboxamide]",> 10000 nM,–,19.9 nM,–,0.334 µM
"CC1CN(c2cncnc2)Cc2cc(C(=O)Nc3cccc(C(F)(F)F)c3)ccc21 (stereo not shown) [Example 13, 4-methyl-2-(pyrimidin-5-yl)-N-(3-(trifluoromethyl)phenyl)-1,2,3,4-tetrahydroisoquinoline-7-carboxamide]",> 10000 nM,10 µM,191 nM,> 10 µM,–
"CC1CN(c2cncnc2)Cc2cc(C(=O)Nc3cc(CN4CCCN(C)CC4)cc(C(F)(F)F)c3)ccc21 (stereo not shown) [Example 14, 4-methyl-N-(3-((4-methyl-1,4-diazepan-1-yl)methyl)-5-(trifluoromethyl)phenyl)-2-(pyrimidin-5-yl)-1,2,3,4-tetrahydroisoquinoline-7-carboxamide]",> 10000 nM,–,25.6 nM,> 10 µM,0.604 µM
"CCc1cc(CN2CCN(C)CC2)cc(NC(=O)c2ccc3c(c2)CN(c2cncnc2)CC3C)c1 (stereo not shown) [Example 15, N-(3-ethyl-5-((4-methylpiperazin-1-yl)methyl)phenyl)-4-methyl-2-(pyrimidin-5-yl)-1,2,3,4-tetrahydroisoquinoline-7-carboxamide]",> 10000 nM,1.4 µM,50.5 nM,> 10 µM,–
"CC1CN(c2cncnc2)Cc2cc(C(=O)Nc3cc(CN(C)CCN(C)C)cc(C(F)(F)F)c3)ccc21 (stereo not shown) [Example 23, N-(3-(((2-(dimethylamino)ethyl)(methyl)amino)methyl)-5-(trifluoromethyl)phenyl)-4-methyl-2-(pyrimidin-5-yl)-1,2,3,4-tetrahydroisoquinoline-7-carboxamide]",> 10000 nM,1.2 µM,–,–,–
